Reference: US5017584A, “Antidepressant 2-(4,5-dihydro-1H-imidazolyl)-dihydro-1H-indoles, -1,2,3,4-tetrahydroquinolines and -1H-indoles, and methods of use thereas” (Sterling Drug Inc., priority 1985, dated 1991)
“And” between values parts separate entries of the source, which are not always exact repeats. Equal values may be shown once. Read-outs that look alike come from different tables or passages of the source.

Columns and labels:
[1] = target: T1, isolated, electrically stimulated rat vas deferens (Rattus norvegicus, UniProt P22909); experiment: Vas Deferens Assay: antagonism of clonidine-induced inhibition of twitch height in isolated, electrically stimulated rat vas deferens; details: for Twitch height: reversal by yohimbine; for inhibition at 0.5 µM: 500 nM
T1 construct: isolated, electrically stimulated rat vas deferens; from tissue; host or cells: isolated rat vas deferens
T1 sequence (P22909 1-465): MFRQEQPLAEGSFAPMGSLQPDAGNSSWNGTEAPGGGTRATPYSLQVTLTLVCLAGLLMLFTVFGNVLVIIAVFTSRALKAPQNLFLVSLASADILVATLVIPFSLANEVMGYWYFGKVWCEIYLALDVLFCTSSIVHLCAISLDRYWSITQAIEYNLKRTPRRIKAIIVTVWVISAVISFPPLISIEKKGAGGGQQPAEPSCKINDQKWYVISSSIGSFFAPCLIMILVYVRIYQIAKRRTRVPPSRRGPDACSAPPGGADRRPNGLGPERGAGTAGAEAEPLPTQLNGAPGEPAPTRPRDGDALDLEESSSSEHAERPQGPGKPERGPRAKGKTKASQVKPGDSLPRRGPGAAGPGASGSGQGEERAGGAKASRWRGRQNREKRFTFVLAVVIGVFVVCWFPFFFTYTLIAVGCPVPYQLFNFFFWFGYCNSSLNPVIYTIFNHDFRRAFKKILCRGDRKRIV
Method: (§1) The α2 -adrenergic antagonist activity of the compounds of the invention was determined by three screening methods, described as follows:
Results are expressed either in terms of percent inhibition at the concentration of antagonist used or as pA2 values, determined by the Schild method; cf. Tallarida and Murray, Manual of Pharmacologic Calculations, pp. 29-32 (Springer-Verlag, 1981). The pA2 value is the negative logarithms of the concentration of antagonist required to cause a two-fold shift in the dose response curve to clonidine-induced inhibition of twitch height.

α2-adrenergic receptor = target: T2, α2-adrenergic receptor (Rattus norvegicus, UniProt P22909); experiment: Tritiated Clonidine Receptor Binding Assay (inhibition of 3H-clonidine binding to rat cerebral cortex membranes); details: for inhibition at 1 µM: read-out: % I, Clonidine [3H] Binding, 1000 nM; for Ki: 0.4 nM 3H-clonidine, rat cerebral cortex membranes
T2 construct: Homogenates of rat cerebral cortex; from tissue; host or cells: rat cerebral cortex homogenate (membranes)
T2 sequence (P22909 1-465): T1 sequence (P22909 1-465)
Method: as §1
The results are expressed either in terms of percent inhibition at the concentration of antagonist used or as Ki values.

mice = experiment: In Vivo Antagonism of Clonidine-Induced Anti-Nociception (phenyl-p-quinone writhing); details: Mus musculus; for ED50: read-out: ED50, Antagonism of Clonidine Analgesia; for responders at 3 mg/kg: 3 mg/kg s.c.
Method: as §1
In Vivo Antagonism of Clonidine-Induced Anti-Nociception
The intraperitoneal administration of phenyl-p-quinone (PPQ) to mice elicits a nociceptive response which consists of abdominal writhing and extension of the hind limbs. This writhing response is prevented in mice pretreated with clonidine. […] To groups of thirty male mice for each experiment, the test compound dissolved in 0.9% sodium chloride was administered either subcutaneously or orally. […] The number of mice that writhed at least three times during the five minute observation period was counted. The number of mice that writhed was scored for each dose of antagonist, and the percentage reversal of clonidine-induced anti-nociception (analgesia) was calculated by dividing the number of animals writhing by the total number of test animals and multiplying the quotient by 100. The results are also expressed as an ED50, the effective dose (in mg./kg.) in 50% of the animals to effect antagonism of clonidine-induced analgesia.

[2] = phenylquinone writing test; cited from earlier work
[3] = cited from earlier work
[4] = rat, read-out: % A, rat vas deferens, 100 nM
[5] = read-out: pA2, rat vas deferens (converted)
[6] = sc, read-out: % A, Antagonism of Clonidine Analgesia, 1 mg/kg s.c.
[7] = sc, read-out: % A, Antagonism of Clonidine Analgesia
[8] = sc, read-out: % A, Antagonism of Clonidine Analgesia, 10 mg/kg s.c.
[9] = po, read-out: % A, Antagonism of Clonidine Analgesia, 10 mg/kg p.o.
[10] = po, read-out: % A, Antagonism of Clonidine Analgesia, 30 mg/kg p.o.
[11] = rat, 100 nM, read-out: % A, rat vas deferens
[12] = rat, read-out: % A, rat vas deferens
[13] = sc, read-out: % A, Antagonism of Clonidine Analgesia, 30 mg/kg s.c.

## CC1c2ccccc2N(C)C1CC1=NCCN1 (centres unmarked) [Example 1AE]
[1]; 20 μm
  fold shift of clonidine: 15 fold

## Cn1c(C2=NCCN2)cc2ccccc21 [Example 1Y]
[1]; [4]
  inhibition at 0.1 µM: 3%
α2-adrenergic receptor
  inhibition at 1 µM: 32.5%

## COc1c(C2=NCCN2)n(C)c2ccccc12 [Example 1AG]
[1]; 10 μm
  fold shift of clonidine: 3.9 fold

## CN1c2ccc(Cc3ccccc3)cc2CC1C1=NCCN1 (centres unmarked) [Example 1P]
mice; sc, s.c.
  ED50: 11.3 mg/kg
[1]; [5]
  Kb: 25.7 nM

## CN1c2c(Cl)cccc2CC1C1=NCCN1 (centres unmarked) [Example 1K]
mice; sc, read-out: % A, Antagonism of Clonidine Analgesia, 0.03 mg/kg s.c.
  responders at 0.03 mg/kg: 70%
mice; [6]
  responders at 1 mg/kg: 100%
mice; [7]
  responders at 3 mg/kg: 100%
mice; [8]
  responders at 10 mg/kg: 100%
[1]
  Kb: 1.58 nM

## c1ccc2c(c1)CC(C1=NCCN1)N2 (centres unmarked) [Example 1O]
mice; po, p.o.
  ED50: 1.8 mg/kg
[1]
  Kb: 6.92 nM

## CN1c2ccc(Cl)cc2CC1C1=NCCN1 (centres unmarked) [Example 1H]
mice; po, p.o.
  ED50: 1.5 mg/kg
[1]
  Kb: 2.75 nM

## C=C1c2ccccc2N(C)C1(C)C1=NCCN1 (centres unmarked) [Example 1AF]
[1]; 10 μm
  fold shift of clonidine: 23.9 fold

## CCN1CCN=C1C1C(C)c2ccccc2N1C (centres unmarked) [Example 1AD]
[1]; 20 μm
  fold shift of clonidine: 3.5 fold

## c1ccc(CN2c3ccccc3CC2C2=NCCN2)cc1 (centres unmarked) [Example 1E]
mice; po, p.o.
  ED50: 0.051 mg/kg
mice; sc, s.c.
  ED50: 0.18 mg/kg
[1]; [5]
  Kb: 11.7 nM
α2-adrenergic receptor
  Ki: 2.3 nM

## CSCC1(C2=NCCN2)Cc2ccccc2N1C (centres unmarked) [Example 1AB]
mice; [9]
  responders at 10 mg/kg: 0%
mice; [10]
  responders at 30 mg/kg: 90%
[1]
  Twitch height: reversed by yohimbine

## c1ccc(C2CC(C3=NCCN3)Nc3ccccc32)cc1 (centres unmarked) [Example 1W]
[1]; 0.1 nM, 0.0001 µM
  % A, rat vas deferens: 3%
[1]; 1 nM, 0.001 µM
  % A, rat vas deferens: 0% and 1%
[1]; rat, 0.1 nM
  inhibition at 0.0001 µM: 2%
α2-adrenergic receptor
  inhibition at 1 µM: 44.6%

## CCN1c2ccccc2CC1C1=NCCN1 (centres unmarked) [Example 1C]
mice; po, p.o.
  ED50: 0.098 mg/kg
mice; sc, s.c.
  ED50: 0.034 mg/kg
[1]
  Kb: 1.23 nM
α2-adrenergic receptor
  Ki: 0.91 nM

## C[C@@H]1c2ccccc2N(C)[C@@H]1C1=NCCN1 (relative stereo) [Example 1Z]
mice; sc, read-out: % A, Antagonism of Clonidine Analgesia, 0.1 mg/kg s.c.
  responders at 0.1 mg/kg: 80%
mice; sc, read-out: % A, Antagonism of Clonidine Analgesia, 0.3 mg/kg s.c.
  responders at 0.3 mg/kg: 70%
mice; [6]
  responders at 1 mg/kg: 30%
mice; [7]
  responders at 3 mg/kg: 0%
mice; [8]
  responders at 10 mg/kg: 0%
[1]; as agonist
  agonist activity, rat vas deferens: active
[1]; as antagonist
  antagonist activity, rat vas deferens: Inac.

## CCCN1c2ccccc2CC1C1=NCCN1 (centres unmarked) [Example 1J]
[1]
  Kb: 1.74 nM

## c1ccc(N2c3ccccc3CC2C2=NCCN2)cc1 (centres unmarked) [Example 1R]
mice; po, p.o.
  ED50: 19.8 mg/kg
[1]; [4]
  inhibition at 0.1 µM: 100%

## c1ccc2c(c1)CCN2C1=NCCN1 [1-(4,5-dihydro-1H-imidazol-2-yl)-2,3-dihydro-1H-indole]
[2]
  analgesic activity: active
[3]; chloral hydrate
  analeptic activity, antagonism of chloral hydrate: inactive
[3]; pentobarbital
  analeptic activity, antagonism of pentobarbital: active

## CCOCCN1c2ccccc2CC1C1=NCCN1 (centres unmarked) [Example 1N]
mice; po, p.o.
  ED50: 26.5 mg/kg
[1]
  Kb: 15.5 nM

## CCCCN1c2ccccc2CC1C1=NCCN1 (centres unmarked) [Example 1L]
mice; [7]
  responders at 3 mg/kg: 20%
mice; sc, read-out: % A, Antagonism of Clonidine Analgesia, 5.5 mg/kg s.c.
  responders at 5.5 mg/kg: 100%
mice; [8]
  responders at 10 mg/kg: 100%
[1]
  Kb: 1.58 nM

## c1ccc(CCN2c3ccccc3CC2C2=NCCN2)cc1 (centres unmarked) [Example 1Q]
[1]; [11]
  inhibition at 0.1 µM: 81%
[1]; [12]
  inhibition at 0.5 µM: 94%

## C=CCN1c2ccccc2CC1C1=NCCN1 (centres unmarked) [Example 1M]
mice; po, p.o.
  ED50: 2.6 mg/kg
[1]
  Kb: 0.851 nM

## c1ccc2c(c1)CCC(C1=NCCN1)N2 (centres unmarked) [Example 1U]
mice; po, p.o.
  ED50: 3.8 mg/kg
[1]
  Kb: 9.33 nM

## COCC1(C2=NCCN2)Cc2ccccc2N1C (centres unmarked) [Example 1AA]
mice; po, read-out: % A, Antagonism of Clonidine Analgesia, 1 mg/kg p.o.
  responders at 1 mg/kg: 0%
mice; [9]
  responders at 10 mg/kg: 10%
mice; [10]
  responders at 30 mg/kg: 70%
mice; po, p.o.
  ED50: 21.8 mg/kg
mice; sc, s.c.
  ED50: 2.6 mg/kg
[1]; 100 nM, 0.1 µM
  % A, rat vas deferens: 7%
[1]; [11]
  inhibition at 0.1 µM: 6%
[1]; [12]
  inhibition at 0.5 µM: 52%
[1]; rat, read-out: reduced twitch height
  inhibition at 0.5 µM: 67%
α2-adrenergic receptor; concentration not given
  % I, Clonidine [3H] Binding: 43.5%

## CN1c2ccc(F)cc2CC1C1=NCCN1 (centres unmarked) [Example 1A, 2-(4,5-dihydro-1H-imidazol-2-yl)-5-fluoro-2,3-dihydro-1-methyl-1H-indole]
mice; po, p.o.
  ED50: 0.75 mg/kg
mice; sc, s.c.
  ED50: 0.0071 mg/kg
[1]
  Kb: 3.55 nM
α2-adrenergic receptor
  Ki: 0.92 nM

## CN1c2ccccc2CC1(C)C1=NCCN1 (centres unmarked) [Example 1F]
mice; po, p.o.
  ED50: 8.8 mg/kg
[1]
  Kb: 28.2 nM
α2-adrenergic receptor
  Ki: 3.39 nM

## CN1c2ccccc2CC1CC1=NCCN1 (centres unmarked) [Example 1G]
mice; [13]
  responders at 30 mg/kg: 0%
α2-adrenergic receptor
  Ki: 355 nM

## CN1c2c(Cl)cc(Cl)cc2CC1C1=NCCN1 (centres unmarked) [Example 1S]
mice; po, p.o.
  ED50: 60.1 mg/kg
[1]
  Kb: 10 nM

## C[C@H]1c2ccccc2N(C)[C@@H]1C1=NCCN1 (relative stereo) [Example 1T]
mice; po, p.o.
  ED50: 41 mg/kg
[1]
  Kb: 110 nM

## CN1c2ccccc2CCC1C1=NCCN1 (centres unmarked) [Example 1V]
mice; po, p.o.
  ED50: 2.6 mg/kg
[1]
  Kb: 7.41 nM

## Cn1c(CC2=NCCN2)cc2ccccc21 [Example 1X]
mice; [9]
  responders at 10 mg/kg: 0%
mice; [10]
  responders at 30 mg/kg: 10%
mice; po, read-out: % A, Antagonism of Clonidine Analgesia, 100 mg/kg p.o.
  responders at 100 mg/kg: 50%
mice; [8]
  responders at 10 mg/kg: 50%
mice; [13]
  responders at 30 mg/kg: 60%
mice; sc, read-out: % A, Antagonism of Clonidine Analgesia, 100 mg/kg s.c.
  responders at 100 mg/kg: 50%
[1]
  Kb: 33.1 nM

## CC(C)N(CC1(C2=NCCN2)Cc2ccccc2N1C)C(C)C (centres unmarked) [Example 1AC]
mice; [9]
  responders at 10 mg/kg: 50%
mice; [10]
  responders at 30 mg/kg: 50%
[1]
  Twitch height: reversed by yohimbine

## C=CCC1(C2=NCCN2)Cc2ccccc2N1C (centres unmarked) [Example 1D]
mice; po, p.o.
  ED50: 11.1 mg/kg
[1]; [5]
  Kb: 110 nM
α2-adrenergic receptor
  inhibition at 1 µM: 85%

## CN1c2ccccc2CC1C1=NCCN1 (centres unmarked) [Example 1B]
mice; sc, s.c.
  ED50: 12 mg/kg
[1]
  Kb: 3.31 nM
α2-adrenergic receptor
  Ki: 0.46 nM
